Measured values published in publication PMC10488193, “Evaluation of the Chemical Stability, Membrane Permeability and Antiproliferative Activity of Cyclic Diarylheptanoids from European Hornbeam (Carpinus betulus L.)” (International Journal of Molecular Sciences, 2023).
Entries after “also recorded” stand apart in the source; their conditions may differ. Marks after values point to notes of the source that are not given here.

How the values were obtained:
[1] = Storage stability in solutions and hornbeam bark extracts (UHPLC-DAD); type: physicochemical
Procedure: (§1) For the analysis of the samples from the chemical stability as well as the PAMPA studies, sample concentrations were determined using our previously developed ultrahigh-performance liquid chromatography–diode array detection (UHPLC-DAD) method validated for linearity, precision and accuracy. Briefly, an ACQUITY UPLC H-Class PLUS System hyphenated with a quaternary solvent delivery pump (QSM), an auto-sampler manager (FTN), a column compartment (CM) and a photodiode array (PDA) detector (Waters Corporation) was employed. Stationary phase: Acquity BEH C18 column (100 × 2.1 mm i.d., 1.7 µm; Waters Corporation), column temperature: 30 °C. The mobile phase consisted of 0.3% acetic acid in water (eluent A) and acetonitrile (eluent B). The following gradient elution was applied at a flow rate of 0.3 mL/min: 0 min 12.0% B, 19.0 min 13.5% B, 25.5 min 75.0% B, 26.0 min 100.0% B, 28.0 min 100.0% B, 28.5 min 12.0% B.
(§2) We used the following equations to calculate the first-order reaction rate constant (k) and the half-life (t1/2) indicating the time required to reduce the concentration of diarylheptanoids by 50% [29]:ln (ct/c0) = −k × t(1) t1/2 = −ln 0.5 × k^−1(2) where ct is the concentration of the diarylheptanoids at time t, c0 is the initial concentration, k is the reaction rate constant, t is the treatment time.
The chemical stability of the isolated compounds in solutions was examined at a concentration of 50 µg/mL in methanol and water (in the latter case using methanol as co-solvent, final composition: water-methanol 90:10, v/v). Furthermore, the methanol and ethyl acetate extracts of C. betulus bark (concentration 4 mg/mL) were also studied in order to assess the effects of the accompanying substances. The storage stability studies were performed at a neutral pH value. All solutions were filtered through Phenex-RC 15 mm, 0.2 μm syringe filters (Gen-Lab Ltd., Budapest, Hungary). The samples were prepared in triplicate and stored protected from light at 22 ± 2.0 °C, 5 ± 1.5 °C and −15 ± 2.0 °C for 23 weeks. Quantities of the analytes of interest were quantified at weeks 12 and 23 using the abovementioned UHPLC-DAD method (see Section 3.4).
The effects of the temperature and the medium (i.e., solvent and accompanying substances) were analysed through one-way analysis of variance (ANOVA) followed by Tukey’s post hoc HSD test (p < 0.05). To establish the kinetic parameters t1/2 and k, Equations (1) and (2) were applied, respectively.

[2] = Aqueous stability at biorelevant pH values, 37 °C (UHPLC-DAD); type: physicochemical
Procedure: as §1
The buffers modelling the gastric fluid (pH 1.2), the intestinal fluid (pH 6.8) and the blood and the tissues (pH 7.4) were prepared as follows. Buffer pH = 1.2: 1.0 g NaCl and 3.5 mL HCl dissolved in distilled water, final volume: 500.0 mL. Buffer pH = 6.8: 20.2 g Na2HPO4∙7H2O and 3.4 g NaH2PO4∙H2O dissolved in distilled water, final volume: 1000.0 mL, pH adjustment with 0.5 M NaOH or 0.5 M HCl. Buffer pH = 7.4: one PBS tablet dissolved in 200.0 mL distilled water. The stock solutions of compounds 1–4 were prepared with dimethyl sulfoxide (DMSO) at a concentration of 10.0 mM. The stock solutions were diluted 100-fold with each buffer separately to obtain the working solutions (297.0 μL buffer + 3.0 μL stock solution). All working solutions were filtered through Phenex-RC 15 mm, 0.2 μm syringe filters (Gen-Lab Ltd., Budapest, Hungary). The samples were incubated for 81 h at 37 °C; aliquots were taken for analysis every 9 h in accordance with the time required to quantify the analytes of interest in one set of samples. The total incubation time of 81 h was applied to obtain data for ten measurement points. The previously described UHPLC-DAD method was used to examine the changes in compound concentrations (see Section 3.4).
For the determination of pH stability, the initial AUC values were compared with the data after 9 and 81 h using paired-sample t test; significant difference was reported at p < 0.05. The effects of the pH were analysed through one-way analysis of variance (ANOVA) followed by Tukey’s post hoc HSD test (p < 0.05). All experiments were performed in triplicates (n = 3).
as §2

O=C1CCc2ccc(O)c(c2)-c2cc(ccc2O)C[C@H](O)[C@H](O)[C@H]1O [Compound 2, carpinontriol B]
concentration as compared to the initial value ([1]; 12 weeks, 5 °C, EE (ethyl acetate extract of bark)): 99.5 ± 0.4 ^#a %
concentration as compared to the initial value ([1]; 12 weeks, 5 °C, EM (methanol extract of bark)): 99.9 ± 0.8 ^a %
concentration as compared to the initial value ([1]; 12 weeks, 5 °C, SA (aqueous solution)): 99.9 ± 0.4 ^a %
concentration as compared to the initial value ([1]; 12 weeks, 5 °C, SM (methanol solution)): 99.4 ± 0.6 ^a %
concentration as compared to the initial value ([1]; 12 weeks, 22 °C, EE (ethyl acetate extract of bark)): 100.2 ± 0.7 ^a %
concentration as compared to the initial value ([1]; 12 weeks, 22 °C, EM (methanol extract of bark)): 101.1 ± 1.1 ^a %
concentration as compared to the initial value ([1]; 12 weeks, 22 °C, SA (aqueous solution)): 100.4 ± 1.1 ^a %
concentration as compared to the initial value ([1]; 12 weeks, 22 °C, SM (methanol solution)): 99.7 ± 0.4 ^a %
concentration as compared to the initial value ([1]; 12 weeks, −15 °C, EE (ethyl acetate extract of bark)): 100.1 ± 0.7 ^a %
concentration as compared to the initial value ([1]; 12 weeks, −15 °C, EM (methanol extract of bark)): 99.8 ± 0.7 ^a %
concentration as compared to the initial value ([1]; 12 weeks, −15 °C, SA (aqueous solution)): 99.1 ± 1.3 ^a %
concentration as compared to the initial value ([1]; 12 weeks, −15 °C, SM (methanol solution)): 99.1 ± 1.3 ^a %
concentration as compared to the initial value ([1]; 23 weeks, 5 °C, EE (ethyl acetate extract of bark)): 100.1 ± 0.4 ^a %
concentration as compared to the initial value ([1]; 23 weeks, 5 °C, EM (methanol extract of bark)): 99.2 ± 1.2 ^a %
concentration as compared to the initial value ([1]; 23 weeks, 5 °C, SA (aqueous solution)): 99.9 ± 0.5 ^a %
concentration as compared to the initial value ([1]; 23 weeks, 5 °C, SM (methanol solution)): 99.2 ± 0.5 ^a %
concentration as compared to the initial value ([1]; 23 weeks, 22 °C, EE (ethyl acetate extract of bark)): 99.7 ± 0.5 ^a %
concentration as compared to the initial value ([1]; 23 weeks, 22 °C, EM (methanol extract of bark)): 99.7 ± 0.3 ^#a %
concentration as compared to the initial value ([1]; 23 weeks, 22 °C, SA (aqueous solution)): 99.8 ± 0.9 ^a %
concentration as compared to the initial value ([1]; 23 weeks, 22 °C, SM (methanol solution)): 99.9 ± 0.6 ^a %
concentration as compared to the initial value ([1]; 23 weeks, −15 °C, EE (ethyl acetate extract of bark)): 99.8 ± 0.4 ^a %
concentration as compared to the initial value ([1]; 23 weeks, −15 °C, EM (methanol extract of bark)): 99.6 ± 0.7 ^a %
concentration as compared to the initial value ([1]; 23 weeks, −15 °C, SA (aqueous solution)): 99.1 ± 1.2 ^a %
concentration as compared to the initial value ([1]; 23 weeks, −15 °C, SM (methanol solution)): 99.1 ± 1.2 ^a %
storage stability in methanol and aqueous solutions (in words) ([1]; SM and SA, −15, 5, 22 °C, weeks 12 and 23): stable; also recorded: good stability
aqueous stability at pH 1.2, 6.8, 7.4 (in words) ([2]; 37 °C, up to 81 h): remained intact for the whole study at all pH values; also recorded: stable at all three studied biorelevant pH values
relative concentration compared to the initial value ([2]; 9 h, pH 1.2, 37 °C): 101.7 ± 4.2 ^a %
relative concentration compared to the initial value ([2]; 9 h, pH 6.8, 37 °C): 105.2 ± 3.9 ^a %
relative concentration compared to the initial value ([2]; 9 h, pH 7.4, 37 °C): 102.0 ± 0.9 ^a %
relative concentration compared to the initial value ([2]; 81 h, pH 1.2, 37 °C): 100.7 ± 5.1 ^a %
relative concentration compared to the initial value ([2]; 81 h, pH 6.8, 37 °C): 101.9 ± 6.4 ^a %
relative concentration compared to the initial value ([2]; 81 h, pH 7.4, 37 °C): 101.5 ± 1.1 ^a %
